Assay results published in patent publication US20210147381A1, “1,2,3,4-SUBSTITUTED QUINOLINE COMPOUNDS AS SIP MODULATORS” (AbbVie Deutschland GmbH & Co. KG, priority 2017, published 2021).

How the values were obtained:
Assay type in all cases: cell-based
[1] = biological target: T1, human S1P4 receptor (S1PR4) (Homo sapiens, UniProt O95977); assay: Intracellular Ca2+ release (method 1), agonist potency, S1P4; details: CHO-K1 cells expressing human S1PR4
T1 construct: host or cells: CHO-K1
T1 sequence (O95977 1-384): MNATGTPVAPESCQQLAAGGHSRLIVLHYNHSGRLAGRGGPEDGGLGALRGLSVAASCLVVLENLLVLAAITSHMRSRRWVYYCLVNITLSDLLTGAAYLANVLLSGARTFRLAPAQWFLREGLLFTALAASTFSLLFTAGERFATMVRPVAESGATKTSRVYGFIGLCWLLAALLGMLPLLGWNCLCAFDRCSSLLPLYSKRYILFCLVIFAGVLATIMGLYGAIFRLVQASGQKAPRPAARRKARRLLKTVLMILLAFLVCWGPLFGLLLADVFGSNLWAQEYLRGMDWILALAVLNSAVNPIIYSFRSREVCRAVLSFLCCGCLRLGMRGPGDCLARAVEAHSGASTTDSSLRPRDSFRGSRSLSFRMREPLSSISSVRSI
Protocol: (§1) Agonistic activity and efficacy of compounds was assessed in recombinant cells using method 1 described below.
(§2) Agonist potency and efficacy were assessed by measurement of intracellular Ca^2+ release. Recombinant CHO-K1 cells (Euroscreen, Brussels, Belgium) expressing human S1PR5, S1PR1, S1PR3 or S1PR4 receptors, aequorin, and GTP binding protein Gq/i5 were cultured using a medium containing nutrient mixture F-12 Ham (Sigma-Aldrich) with 10% FBS, and 100 μg/mL gentamicin and equilibrated at 5% CO2.
(§3) 15,000 cells in 20 μL medium were seeded into Biocoat poly-D-Lysine coated 384 well plates (Becton Dickinson #35-6663) and grown to 95% confluency after 24 h.
(§4) Culture medium was replaced by an assay buffer consisting of HBBS with Ca^2+ and Mg^2+ (Invitrogen #14025-050), 20 mmol/L Hepes (Sigma-Aldrich #H-3375), 2.5 mmol/L probenecid (Sigma-Aldrich #P-8761, and 0.1% BSA (Sigma-Aldrich #A-7030) pH 7.4. The Calcium 5 no-wash FLIPR assay kit (Molecular Devices #5000625) was performed as described in the kit instructions. Cells were incubated with Calcium 5 dye for 1 h at 37° C., 5% CO2 in the dark. After 45 min adaptation to RT assessment of agonist stimulation of intracellular Ca^2+ release was performed by addition of test compounds at various concentrations obtained by serial dilution. Phospho-fingolimod was used as positive control and reference agonist (intrinsic activity 100%).
(§5) Agonism of test compounds at the human S1Px receptors were characterized by the EC50 values (potencies) deduced from a nonlinear 4 parametric logistic curve fit to the measured fluorescence data after normalization to the lower and upper plateaus of the fitted reference agonist's (phospho-fingolimod)effect curve and by their efficacy (Emax) values represented by their maximum achievable effects in % of the reference agonist's efficacy, which is defined as an Emax of 100%.

[2] = biological target: T2, human S1P5 receptor (S1PR5) (Homo sapiens, UniProt Q9H228); assay: Intracellular Ca2+ release (method 1), agonist potency and efficacy, S1P5; details: for Emax: read-out: hS1P5 EMax; for EC50: recombinant CHO-K1 cells expressing human S1PR5, aequorin, Gq/i5, Ca2+ release, read-out: S1P5 EC50 range
T2 construct: host or cells: CHO-K1
T2 sequence (Q9H228 whole entry): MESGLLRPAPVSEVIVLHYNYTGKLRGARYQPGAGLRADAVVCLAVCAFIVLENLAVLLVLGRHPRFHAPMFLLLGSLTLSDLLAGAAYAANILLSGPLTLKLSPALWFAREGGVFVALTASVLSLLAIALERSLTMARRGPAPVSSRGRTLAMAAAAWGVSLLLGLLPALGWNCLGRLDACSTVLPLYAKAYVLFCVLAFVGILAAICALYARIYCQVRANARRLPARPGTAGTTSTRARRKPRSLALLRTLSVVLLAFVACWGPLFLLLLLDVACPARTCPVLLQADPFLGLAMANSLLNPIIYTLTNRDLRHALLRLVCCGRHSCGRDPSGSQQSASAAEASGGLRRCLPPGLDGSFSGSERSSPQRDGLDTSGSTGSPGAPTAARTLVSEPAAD
Protocol: as §1, §2, §3, §4, §5

[3] = biological target: T3, human S1P1 receptor (S1PR1) (Homo sapiens, UniProt P21453); assay: Intracellular Ca2+ release (method 1), agonist potency, S1P1; details: CHO-K1 cells expressing human S1PR1; cells given as bound
T3 construct: host or cells: CHO-K1
T3 sequence (P21453 whole entry): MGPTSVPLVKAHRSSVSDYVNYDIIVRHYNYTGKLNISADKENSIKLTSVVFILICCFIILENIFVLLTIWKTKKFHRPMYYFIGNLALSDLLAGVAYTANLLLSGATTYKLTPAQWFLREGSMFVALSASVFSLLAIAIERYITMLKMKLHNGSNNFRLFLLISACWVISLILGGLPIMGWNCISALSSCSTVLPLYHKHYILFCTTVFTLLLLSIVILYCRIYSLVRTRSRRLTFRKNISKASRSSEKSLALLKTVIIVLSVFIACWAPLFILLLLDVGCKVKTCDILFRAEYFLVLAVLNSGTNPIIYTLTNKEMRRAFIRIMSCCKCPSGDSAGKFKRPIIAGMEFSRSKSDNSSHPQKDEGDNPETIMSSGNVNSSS
Protocol: as §1, §2, §3, §4, §5

[4] = maximum effect in % of reference agonist phospho-fingolimod (100%)

| Structure (SMILES) | EC50 ([1]; cells given as bound) | Emax [2, 4] | EC50 [2] | EC50 [3] | EC50 [1] | hS1P5 EMax [2, 4] |
| --- | --- | --- | --- | --- | --- | --- |
| O=C(O)CCCN1Cc2ccc(C#Cc3ccc(=O)n(CC4CC4)c3)cc2C2(CC2)C1 [Compound 4, 4-(6′-((1-(cyclopropylmethyl)-6-oxo-1,6-dihydropyridin-3-yl)ethynyl)-1′H-spiro[cyclopropane-1,4′-isoquinolin]-2′(3′H)-yl)butanoic acid] | > 1 µM | 50 to 100% | 1 to 10 µM | > 1 µM | – | – |
| O=C(O)CN1Cc2ccc(OCc3c(Cl)cccc3Cl)cc2C2(CC2)C1 [Compound 12, 2-(6′-((2,6-Dichlorobenzyl)oxy)-1′H-spiro[cyclopropane-1,4′-isoquinolin]-2′(3′H)-yl)acetic acid] | – | 50 to 100% | 0.1 to 1 µM | > 1 µM | 0.1 to 1 µM | – |
| O=C(O)CCCN1Cc2ccc(OCc3ccc(Cl)cc3)cc2C2(CC2)C1 [Compound 16, 4-(6′-((4-Chlorobenzyl)oxy)-1′H-spiro[cyclopropane-1,4′-isoquinolin]-2′(3′H)-yl)butanoic acid] | – | < 50% | 0.1 to 1 µM | > 1 µM | 0.1 to 1 µM | – |
| O=C(O)CCCN1Cc2ccc(OCc3ccc(F)cc3)cc2C2(CC2)C1 [Compound 17, 4-(6′-((4-Fluorobenzyl)oxy)-1′H-spiro[cyclopropane-1,4′-isoquinolin]-2′(3′H)-yl)butanoic acid] | > 1 µM | 50 to 100% | 0.1 to 1 µM | > 1 µM | – | – |
| CC(=O)O.O=C(O)CCN1Cc2ccc(C#Cc3c(Cl)cccc3Cl)cc2C2(CC2)C1 [Compound 30, 3-(6′-((2,6-dichlorophenyl)ethynyl)-1′H-spiro[cyclopropane-1,4′-isoquinolin]-2′(3′H)-yl)propanoic acid acetic acid salt (1:1)] | – | – | – | – | 0.1 to 1 µM | ++ (EMax = 50-100, determined with method 1) |
| CCOc1ccc(C#Cc2ccc3c(c2)C2(CC2)CN(CCCC(=O)O)C3)cn1 [Compound 50, 4-(6′-((6-ethoxypyridin-3-yl)ethynyl)-1′H-spiro[cyclopropane-1,4′-isoquinolin]-2′(3′H)-yl)butanoic acid] | > 1 µM | 50 to 100% | 0.1 to 1 µM | > 1 µM | – | – |
| CCOc1ncc(C#Cc2ccc3c(c2)C2(CC2)CN(CCCC(=O)O)C3)cc1F [Compound 51, 4-(6′-((6-ethoxy-5-fluoropyridin-3-yl)ethynyl)-1′H-spiro[cyclopropane-1,4′-isoquinolin]-2′(3′H)-yl)butanoic acid] | > 1 µM | 50 to 100% | 0.1 to 1 µM | > 1 µM | – | – |
| CC(C)Oc1ccc(C#Cc2ccc3c(c2)C2(CC2)CN(CCCC(=O)O)C3)nc1 [Compound 52, 4-(6′-((5-isopropoxypyridin-2-yl)ethynyl)-1′H-spiro[cyclopropane-1,4′-isoquinolin]-2′(3′H)-yl)butanoic acid] | > 1 µM | > 100% | 0.1 to 1 µM | > 1 µM | – | – |
| CCOc1ccc(C#Cc2ccc3c(c2)C2(CC2)CN(CCCC(=O)O)C3)c(C)n1 [Compound 53, 4-(6′-((6-ethoxy-2-methylpyridin-3-yl)ethynyl)-1′H-spiro[cyclopropane-1,4′-isoquinolin]-2′(3′H)-yl)butanoic acid] | > 1 µM | 50 to 100% | 0.1 to 1 µM | > 1 µM | – | – |
| CCOc1ccc(C#Cc2ccc3c(c2)C2(CC2)CN(CCCC(=O)O)C3)nc1 [Compound 54, 4-(6′-((5-ethoxypyridin-2-yl)ethynyl)-1′H-spiro[cyclopropane-1,4′-isoquinolin]-2′(3′H)-yl)butanoic acid] | > 1 µM | 50 to 100% | 1 to 10 µM | > 1 µM | – | – |
| COc1ncc(C#Cc2ccc3c(c2)C2(CC2)CN(CCCC(=O)O)C3)cc1F [Compound 55, 4-(6′-((5-fluoro-6-methoxypyridin-3-yl)ethynyl)-1′H-spiro[cyclopropane-1,4′-isoquinolin]-2′(3′H)-yl)butanoic acid] | > 1 µM | < 50% | 1 to 10 µM | > 1 µM | – | – |
| O=C(O)CCCN1Cc2ccc(C#Cc3ccc4c(c3)OCO4)cc2C2(CC2)C1 [Compound 56, 4-(6′-(benzo[d][1,3]dioxol-5-ylethynyl)-1′H-spiro[cyclopropane-1,4′-isoquinolin]-2′(3′H)-yl)butanoic acid] | > 1 µM | 50 to 100% | 1 to 10 µM | > 1 µM | – | – |
| COc1ccc(C#Cc2ccc3c(c2)C2(CC2)CN(CCCC(=O)O)C3)c(C)n1 [Compound 57, 4-(6′-((6-methoxy-2-methylpyridin-3-yl)ethynyl)-1′H-spiro[cyclopropane-1,4′-isoquinolin]-2′(3′H)-yl)butanoic acid] | > 1 µM | 50 to 100% | 1 to 10 µM | > 1 µM | – | – |

The next lines start with results.

| EC50 ([1]; cells given as bound) | Emax [2, 4] | EC50 [2] | EC50 [3] | EC50 [1] | Structure (SMILES) | hS1P5 EMax [2, 4] |
| --- | --- | --- | --- | --- | --- | --- |
| > 1 µM | 50 to 100% | 0.1 to 1 µM | > 1 µM | – | CCOc1ccc(C#Cc2ccc3c(c2)C2(CC2)CN(CC(=O)O)C3)cc1 [Compound 5, 2′-(carboxymethyl)-6′-((4-ethoxyphenyl)ethynyl)-2′,3′-dihydro-1′H-spiro[cyclopropane-1,4′-isoquinolin]-2′-ium 2,2,2-trifluoroacetate] | – |
| > 1 µM | > 100% | 0.1 to 1 µM | > 1 µM | – | CC(C)c1ccc(C#Cc2ccc3c(c2)C2(CC2)CN(CC(=O)O)C3)cc1 [Compound 6, 2′-(carboxymethyl)-6′-((4-isopropylphenyl)ethynyl)-2′,3′-dihydro-1′H-spiro[cyclopropane-1,4′-isoquinolin]-2′-ium 2,2,2-trifluoroacetate] | – |
| > 1 µM | 50 to 100% | 0.1 to 1 µM | > 1 µM | – | CC(C)Oc1ccc(C#Cc2ccc3c(c2)C2(CC2)CN(CC2(C(=O)O)CC2)C3)cc1 [Compound 8, 1-((6′-((4-isopropoxyphenyl)ethynyl)-1′H-spiro[cyclopropane-1,4′-isoquinolin]-2′(3′H)-yl)methyl)cyclopropanecarboxylic acid] | – |
| > 1 µM | > 100% | 0.1 to 1 µM | > 1 µM | – | O=C(O)C1(CN2Cc3ccc(C#Cc4ccc(OC5CCCC5)nc4)cc3C3(CC3)C2)CC1 [Compound 9, 1-((6′-((6-(cyclopentyloxy)pyridin-3-yl)ethynyl)-1′H-spiro[cyclopropane-1,4′-isoquinolin]-2′(3′H)-yl)methyl)cyclopropanecarboxylic acid] | – |
| > 1 µM | 50 to 100% | 0.01 to 0.1 µM | > 1 µM | – | CCOc1cc(C)c(C#Cc2ccc3c(c2)C2(CC2)CN(CCCC(=O)O)C3)cn1 [Compound 49, 4-(6′-((6-ethoxy-4-methylpyridin-3-yl)ethynyl)-1′H-spiro[cyclopropane-1,4′-isoquinolin]-2′(3′H)-yl)butanoic acid] | – |
| > 1 µM | 50 to 100% | < 0.01 µM | > 1 µM | – | CC(CC(=O)O)CN1Cc2ccc(C#Cc3ccc(OC(C)C)nc3)cc2C2(CC2)C1 (stereo not shown) [Compound 59, 4-(6′-((6-isopropoxypyridin-3-yl)ethynyl)-1′H-spiro[cyclopropane-1,4′-isoquinolin]-2′(3′H)-yl)-3-methylbutanoic acid] | – |
| > 1 µM | 50 to 100% | < 0.01 µM | > 1 µM | – | CC(CC(=O)O)CN1Cc2ccc(C#Cc3ccc(C(C)C)cc3)cc2C2(CC2)C1 (stereo not shown) [Compound 60, 4-(6′-((4-isopropylphenyl)ethynyl)-1′H-spiro[cyclopropane-1,4′-isoquinolin]-2′(3′H)-yl)-3-methylbutanoic acid] | – |
| > 1 µM | 50 to 100% | < 0.01 µM | > 1 µM | – | CC(CC(=O)O)CN1Cc2ccc(C#Cc3ccc(OC(F)(F)F)c(F)c3)cc2C2(CC2)C1 (stereo not shown) [Compound 61, 4-(6′-((3-fluoro-4-(trifluoromethoxy)phenyl)ethynyl)-1′H-spiro[cyclopropane-1,4′-isoquinolin]-2′(3′H)-yl)-3-methylbutanoic acid] | – |
